The source of these data is article PMC6813295, “A tumour-selective cascade activatable self-detained system for drug delivery and cancer imaging” (Nature Communications, 2019).

Where a SMILES comes first, the peptide text is derived from it. The star is where a group is joined. X1 = CC1(C)C(=CC=C2CCCC(C=CC3=[N+](CCCCCC(=O)O)c4ccccc4C3(C)C)=C2*)N(CCCCCC(=O)O)c2ccccc21

Series [1] has as its target T1, recombinant human caspase-3 (Homo sapiens, UniProt P42574).
T1 construct: purchased Sigma-Aldrich Chemical Co
T1 sequence (P42574 29-175 limits assumed): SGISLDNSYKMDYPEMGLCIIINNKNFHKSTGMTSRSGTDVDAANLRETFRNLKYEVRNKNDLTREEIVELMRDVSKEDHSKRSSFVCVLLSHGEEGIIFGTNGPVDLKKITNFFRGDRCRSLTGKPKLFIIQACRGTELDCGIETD
T1 sequence (P42574 176-277 limits assumed): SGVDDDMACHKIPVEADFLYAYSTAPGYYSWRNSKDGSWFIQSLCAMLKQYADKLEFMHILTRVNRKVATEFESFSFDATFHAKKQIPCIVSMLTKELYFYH
Put plainly: Caspase-3 cleavage (HPLC) and induced self-assembly (TEM) in HEPES buffer. It counts as biochemical. The note with it: caspase-3 2 h, substrate-to-enzyme ratio 1 μM/U, HEPES buffer 50 mM pH 7.4, TEM. The protocol:
Fig. 2 The structure conformations and self-assembly properties of molecule 1 in aqueous solution. a Illustration of the self-assembly strategy of molecule 1. b CD spectra of molecule 1 and molecule 4 in deionized water at a concentration of 1 μM. c FTIR spectra of molecule 1 in a monomeric state and molecule 4 in a fibrous assembled state. The arrows identify the typical characteristic peaks of the antiparallel β-sheet structure. d TEM image of self-assembled β-sheet nanofibrils of molecule 1 after treatment with caspase-3 (substrate-to-enzyme ratio of 1 μM/U) in HEPES buffer (50 mM, pH 7.4) for 2 h. The manual measurement of the nanofibril diameter is shown in the zoomed image, and the computational simulation result for the length of molecule 4 is inserted. e WAXS and computational simulation results of the β-sheet self-assemblies (molecule 4) identified the β-sheet and laminate spacing of the structures. f The concentration-dependent CD spectra of molecule 4 in the concentration range of 0.5–10 μM. g Time-dependent TEM images of molecule 4 from 10 min to 12 h for monitoring the growth process of the nanofibrous structures. h Temperature-dependent CD intensity changes at 220 nm of molecules 1 and 4 with a heating rate of 1 °C/min and an equilibrium period of 30 s to reveal the self-assembly mechanisms. Scale bar: 100 nm […]

In a further series the test system is H460 and 293T cells. Nature of the series: Confocal imaging of accumulation and retention in cells, H460 versus 293T. Type of series: cell-based, human. The following applies: 50 μM for 1 h, washed, at 6 h (maximum difference), cytoplasm, n = 15. The method, then:
Fig. 3 Recognition and self-assembly of molecule 1 in cells. a Western blots of XIAP expression in H460 and 293T cells. b Confocal images of H460 cells treated with or without energy-dependent inhibitor (oligomycin A, 20 μM) for 1 h, and followed by washing with PBS and treated with the molecule 1 (50 μM) for 1 h. c Statistical analysis of average fluorescence intensities in the cytoplasm of H460 cells from confocal images. Data are presented as the mean ± s.d. (n = 100). ***p < 0.001, p values were performed with one-way ANOVA followed by post hoc Tukey’s test for the indicated comparison. d Confocal images of time-dependent monitoring of H460 and 293T cells treated with the molecule 1 (50 μM) for 1 h followed by washing with PBS and replacing the medium and a further incubation up to 48 h. e Statistical analysis of average fluorescence intensities in the cytoplasm of H460 and 293T cells from confocal images with a timescale range of 1–48 h. Data are presented as the mean ± s.d. […] Finally, incubate up to 6 h and imaging by confocal microscope. g Schematic diagram illustrates the process of NBD fluorescence illumination. h Confocal images of H460 cells treatment with molecule 1-NBD (50 μM) for 1 h. i TEM images of ultrathin section of H460 cells treated with molecule I-1 (50 μM) and without the molecule I-1 for up to 12 h. […]

On to `CC[C@H](C)[C@H](NC(=O)[C@@H]1CCCN1C(=O)[C@@H](NC(=O)[C@H](C)N)C(C)C)C(=O)N[C@@H](C)C(=O)N[C@@H](CCC(N)=O)C(=O)N[C@@H](CCCCN)C(=O)N[C@@H](CC(=O)O)C(=O)N[C@@H](CCC(=O)O)C(=O)N[C@H](C(=O)N[C@@H](CC(=O)O)C(=O)N[C@@H](CCCCN)C(=O)N[C@@H](CC(C)C)C(=O)N[C@H](C(=O)N[C@@H](Cc1ccccc1)C(=O)N[C@@H](Cc1ccccc1)C(=O)N[C@@H](C)C(=O)N[C@@H](CCC(=O)O)C(=O)N[C@@H](CSC1=C(C=CC2=[N+](CCCCCC(=O)O)c3ccccc3C2(C)C)CCCC1=CC=C1N(CCCCCC(=O)O)c2ccccc2C1(C)C)C(=O)NCC(=O)O)C(C)C)C(C)C` [molecule 1] (H-AVPIAQKDEVDKLVFFAEC(X1)G-OH), for which the “diameter of nanofibrils after incubation with caspase-3” value in series [1] is recorded as “approximately 5.8 ± 0.6 nm”. The “fluorescent intensity in H460 cells relative to 293T cells” value in the series with H460 and 293T cells is “fivefold higher”.
